Results as given in ChEMBL document CHEMBL4219259, “Molecular Determinants Conferring the Stoichiometric-Dependent Activity of α-Conotoxins at the Human α9α10 Nicotinic Acetylcholine Receptor Subtype” (J Med Chem, 2018).
Peptide text beside a SMILES is read from it.

Columns and labels:
[1] = biological target: T1, Neuronal acetylcholine receptor; alpha9/alpha10 (Homo sapiens, UniProt Q9GZZ6+Q9UGM1); assay: Inhibition of human alpha9/alpha10 nACHR (1:1) expressed in Xenopus laevis oocyte assessed as inhibition of ACh induced channel current measured for 2 to 5 days at -80 mV holding potential by two electrode voltage clamp method
T1 sequence (Q9UGM1 whole entry): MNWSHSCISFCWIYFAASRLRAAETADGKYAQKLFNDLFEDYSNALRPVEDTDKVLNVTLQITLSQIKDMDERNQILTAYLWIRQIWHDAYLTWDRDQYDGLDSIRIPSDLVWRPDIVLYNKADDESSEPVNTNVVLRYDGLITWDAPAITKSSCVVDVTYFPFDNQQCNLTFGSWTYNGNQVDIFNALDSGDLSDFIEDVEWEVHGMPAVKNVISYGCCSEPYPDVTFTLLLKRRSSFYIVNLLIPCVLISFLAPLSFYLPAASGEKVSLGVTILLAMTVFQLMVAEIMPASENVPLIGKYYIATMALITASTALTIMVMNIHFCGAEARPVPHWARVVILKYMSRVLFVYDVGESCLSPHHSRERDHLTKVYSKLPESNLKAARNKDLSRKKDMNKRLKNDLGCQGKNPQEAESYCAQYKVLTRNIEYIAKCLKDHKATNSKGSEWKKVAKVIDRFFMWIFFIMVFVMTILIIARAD
T1 sequence (Q9GZZ6 whole entry): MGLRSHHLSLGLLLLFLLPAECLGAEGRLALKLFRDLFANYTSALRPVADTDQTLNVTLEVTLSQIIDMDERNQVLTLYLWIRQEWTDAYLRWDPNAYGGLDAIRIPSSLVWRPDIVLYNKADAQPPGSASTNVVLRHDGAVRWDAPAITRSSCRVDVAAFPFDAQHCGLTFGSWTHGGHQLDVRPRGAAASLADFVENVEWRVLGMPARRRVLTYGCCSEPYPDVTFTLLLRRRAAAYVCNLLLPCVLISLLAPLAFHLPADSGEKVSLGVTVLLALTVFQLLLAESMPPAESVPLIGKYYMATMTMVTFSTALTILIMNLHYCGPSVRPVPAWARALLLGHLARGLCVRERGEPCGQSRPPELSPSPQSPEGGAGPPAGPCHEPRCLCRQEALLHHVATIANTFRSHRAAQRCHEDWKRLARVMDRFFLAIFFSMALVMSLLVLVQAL

[2] = biological target: T2, Neuronal acetylcholine receptor; alpha9/alpha10 (Homo sapiens) (UniProt Q9UGM1+Q9GZZ6); assay: Inhibition of human alpha9/alpha10 nACHR (3:2) expressed in Xenopus laevis oocyte assessed as inhibition of ACh induced channel current at 1 uM measured for 2 to 5 days at -80 mV holding potential by two electrode voltage clamp method
[3] = biological target: T2, Neuronal acetylcholine receptor; alpha9/alpha10 (Homo sapiens); assay: Inhibition of human alpha9/alpha10 nACHR (4:1) expressed in Xenopus laevis oocyte assessed as inhibition of ACh induced channel current at 1 uM measured for 2 to 5 days at -80 mV holding potential by two electrode voltage clamp method
[4] = biological target: T2, Neuronal acetylcholine receptor; alpha9/alpha10 (Homo sapiens); assay: Inhibition of human alpha9/alpha10 nACHR (2:3) expressed in Xenopus laevis oocyte assessed as inhibition of ACh induced channel current at 1 uM measured for 2 to 5 days at -80 mV holding potential by two electrode voltage clamp method
[5] = biological target: T2, Neuronal acetylcholine receptor; alpha9/alpha10 (Homo sapiens); assay: Inhibition of human alpha9 N154G mutant/alpha10 nACHR (1:3) expressed in Xenopus laevis oocyte assessed as inhibition of ACh induced channel current at 1 uM measured for 2 to 5 days at -80 mV holding potential by two electrode voltage clamp method
[6] = biological target: T2, Neuronal acetylcholine receptor; alpha9/alpha10 (Homo sapiens); assay: Inhibition of human alpha9 N154G mutant/alpha10 nACHR (3:1) expressed in Xenopus laevis oocyte assessed as inhibition of ACh induced channel current at 1 uM measured for 2 to 5 days at -80 mV holding potential by two electrode voltage clamp method
[7] = biological target: T1, Neuronal acetylcholine receptor; alpha9/alpha10; assay: Inhibition of human alpha9/alpha10 nACHR (1:3) expressed in Xenopus laevis oocyte assessed as inhibition of ACh induced channel current measured for 2 to 5 days at -80 mV holding potential by two electrode voltage clamp method
[8] = biological target: T1, Neuronal acetylcholine receptor; alpha9/alpha10; assay: Inhibition of human alpha9/alpha10 nACHR (3:1) expressed in Xenopus laevis oocyte assessed as inhibition of ACh induced channel current measured for 2 to 5 days at -80 mV holding potential by two electrode voltage clamp method
[9] = biological target: T3, Neuronal acetylcholine receptor; alpha9/alpha10 (Homo sapiens, UniProt Q9GZZ6+Q9UGM1, N154G); assay: Inhibition of human alpha9 N154G mutant/alpha10 nACHR (1:3) expressed in Xenopus laevis oocyte assessed as inhibition of ACh induced channel current measured for 2 to 5 days at -80 mV holding potential by two electrode voltage clamp method
T3 sequence (Q9GZZ6 whole entry, looked up, stated change not applied): as the sequence (Q9GZZ6 whole entry) above
T3 sequence (Q9UGM1 whole entry, looked up, stated change not applied): as the sequence (Q9UGM1 whole entry) above

[10] = biological target: T3, Neuronal acetylcholine receptor; alpha9/alpha10; assay: Inhibition of human alpha9 N154G mutant/alpha10 nACHR (3:1) expressed in Xenopus laevis oocyte assessed as inhibition of ACh induced channel current measured for 2 to 5 days at -80 mV holding potential by two electrode voltage clamp method
[11] = biological target: Neuronal acetylcholine receptor; alpha9/alpha10 (Homo sapiens, UniProt Q9GZZ6+Q9UGM1, G154N); assay: Inhibition of human alpha9/alpha10 G154N mutant nACHR (1:3) expressed in Xenopus laevis oocyte assessed as inhibition of ACh induced channel current measured for 2 to 5 days at -80 mV holding potential by two electrode voltage clamp method
Neuronal acetylcholine receptor; alpha9/alpha10 (Homo sapiens, UniProt Q9GZZ6+Q9UGM1, G154N), sequence (Q9GZZ6 whole entry, looked up, stated change not applied): as the sequence (Q9GZZ6 whole entry) above
Neuronal acetylcholine receptor; alpha9/alpha10 (Homo sapiens, UniProt Q9GZZ6+Q9UGM1, G154N), sequence (Q9UGM1 whole entry, looked up, stated change not applied): as the sequence (Q9UGM1 whole entry) above

[12] = species on record: Homo sapiens; assay: Ratio of IC50 for human alpha9/alpha10 nACHR (1:3) to IC50 for human alpha9 N154G mutant/alpha10 nACHR (1:3)
[13] = species on record: Homo sapiens; assay: Ratio of IC50 for human alpha9/alpha10 nACHR (3:1) to IC50 for human alpha9 N154G mutant/alpha10 nACHR (3:1)

SMILES	IC50 [1]	inhibition [2]	inhibition [3]	inhibition [4]	inhibition [5]	inhibition [6]	IC50 [7]	IC50 [8]	IC50 [9]	IC50 [10]	IC50 [11]	Ratio IC50 [12]	Ratio IC50 [13]
CC[C@H](C)[C@@H]1NC(=O)[C@H](CCC(=O)O)NC(=O)[C@@H]2CCCN2C(=O)[C@H](Cc2ncc[nH]2)NC(=O)[C@H](CC(=O)O)NC(=O)[C@H](Cc2ccc(O)cc2)NC(=O)[C@H](CC(N)=O)NC(=O)[C@@H]2CSSC[C@H](NC(=O)CN)C(=O)N[C@@H](CSSC[C@@H](C(N)=O)NC1=O)C(=O)N[C@@H](CO)C(=O)N[C@@H](CC(=O)O)C(=O)N1CCC[C@H]1C(=O)N[C@@H](CCCNC(=N)N)C(=O)N2 (HELM PEPTIDE1{G.C.C.S.D.P.R.C.N.Y.D.[O=C([C@H](Cc1ncc[nH]1)N[*:1])[*:2]].P.E.I.C.[am]}$PEPTIDE1,PEPTIDE1,2:R3-8:R3|PEPTIDE1,PEPTIDE1,3:R3-16:R3$$$V2.0)	1 µM	65.8%	65.8%	25.5%	19.5%	21.8%	3.57 µM	0.75 µM	11.3 µM	17 µM	750 nM	3	23
CC[C@H](C)[C@@H]1NC(=O)[C@H](CC(N)=O)NC(=O)[C@@H]2CCCN2C(=O)[C@H](Cc2ncc[nH]2)NC(=O)[C@H](CC(=O)O)NC(=O)[C@H](Cc2ccc(O)cc2)NC(=O)[C@H](CC(N)=O)NC(=O)[C@@H]2CSSC[C@H](NC(=O)CN)C(=O)N[C@@H](CSSC[C@@H](C(N)=O)NC1=O)C(=O)N[C@@H](CO)C(=O)N[C@@H](CC(=O)O)C(=O)N1CCC[C@H]1C(=O)N[C@@H](CCCNC(=N)N)C(=O)N2 (HELM PEPTIDE1{G.C.C.S.D.P.R.C.N.Y.D.[O=C([C@H](Cc1ncc[nH]1)N[*:1])[*:2]].P.N.I.C.[am]}$PEPTIDE1,PEPTIDE1,2:R3-8:R3|PEPTIDE1,PEPTIDE1,3:R3-16:R3$$$V2.0)	–	–	–	–	–	–	17.5 µM	10.8 µM	10.2 µM	8.59 µM	–	–	–
N=C(N)NCCC[C@@H]1NC(=O)[C@H](Cc2ccc(O)cc2)NC(=O)[C@H](CCCNC(=N)N)NC(=O)[C@@H]2CSSC[C@H](NC(=O)CN)C(=O)N[C@@H](CSSC[C@@H](C(N)=O)NC1=O)C(=O)N[C@@H](CO)C(=O)N[C@@H](CC(=O)O)C(=O)N1CCC[C@H]1C(=O)N[C@@H](CCCNC(=N)N)C(=O)N2 (HELM PEPTIDE1{G.C.C.S.D.P.R.C.R.Y.R.C.[am]}$PEPTIDE1,PEPTIDE1,2:R3-8:R3|PEPTIDE1,PEPTIDE1,3:R3-12:R3$$$V2.0)	249 µM	–	–	–	–	–	–	–	–	–	–	–	–
CC(C)[C@@H]1NC(=O)[C@H](CO)NC(=O)[C@@H]2CSSC[C@H](NC(=O)CN)C(=O)N[C@@H](CSSC[C@@H](C(N)=O)NC(=O)[C@H](CCCCN)NC(=O)[C@H](CC(N)=O)NC(=O)[C@@H]3CCCN3C(=O)[C@H](Cc3ncc[nH]3)NC(=O)[C@H](CC(=O)O)NC1=O)C(=O)N[C@@H](CO)C(=O)N[C@@H](CC(=O)O)C(=O)N1CCC[C@H]1C(=O)N[C@@H](CCCNC(=N)N)C(=O)N2 (HELM PEPTIDE1{G.C.C.S.D.P.R.C.S.V.D.[O=C([C@H](Cc1ncc[nH]1)N[*:1])[*:2]].P.N.K.C.[am]}$PEPTIDE1,PEPTIDE1,2:R3-8:R3|PEPTIDE1,PEPTIDE1,3:R3-16:R3$$$V2.0)	–	–	–	–	–	–	13.2 µM	9.3 µM	13 µM	15.2 µM	–	–	–
